Measured values: patent US4684664A, “Derivatives of β-(4-isocyano-1,2,3,4-diepoxycyclopentyl) acrylic acid” (Kureha Kagaku Kogyo Kabushiki Kaisha, priority 1984, dated 1987)
Converted amounts (≈) assume the structure as drawn.

Experiments:
Format in all cases: cell-based
[1] = system: Salmonella paratyphi-A 1015; experiment: Antibacterial activity, agar-dilution MIC, organism No. 10; settings: Salmonella enterica, PARATYPHI, read-out: Minimum Inhibitory Concentration
How it was run: (§1)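 Values come from agar-dilution plates prepared with bouillon agar; they represent the least specimen concentration (μg/ml of medium) giving inhibition.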

[2] = system: Klebsiella pneumoniae PCI-602; experiment: Antibacterial activity, agar-dilution MIC, organism No. 7; settings: Klebsiella pneumoniae, PCI602; Organism No. 7, bouillon-agar; read-out: Minimum Inhibitory Concentration
How it was run: as §1

[3] = system: Pseudomonas aeruginosa PAO 1; experiment: Antibacterial activity, agar-dilution MIC, organism No. 17; settings: Pseudomonas aeruginosa, PAO1; Organism No. 17, bouillon-agar; read-out: Minimum Inhibitory Concentration
How it was run: as §1

Enterobacter cloacae 963 = experiment: Antibacterial activity, agar-dilution MIC, organism No. 24; settings: Enterobacter cloacae, 963; Organism No. 24, bouillon-agar; read-out: Minimum Inhibitory Concentration
How it was run: as §1

[4] = system: Aspergillus niger IFO 6342; experiment: Antifungal activity, agar-dilution MIC, organism No. 30; settings: Aspergillus niger, IFO6342; Organism No. 30, bouillon-agar; read-out: Minimum Inhibitory Concentration
How it was run: as §1

[5] = system: Mycoplasma pneumoniae IID817; experiment: Antimycoplasmal activity, MIC by phenol red colour change, organism No. 28; settings: Mycoplasma, IID817; Organism No. 28, PPLO broth + 1% glucose, 37° C.; read-out: Minimum Inhibitory Concentration (MIC)
Method: Mycoplasma pneumoniae IID817 was used as the test microorganism in a culture medium prepared by adding 1% of glucose to "PPLO broth (manufactured by Difco Co.) liquid culture medium" at 37° C. with phenol red as an indicator, thereby culturing the test microorganism.

[6] = system: Streptococcus faecium IFO 3826; experiment: Antibacterial activity, agar-dilution MIC, organism No. 27; settings: Enterococcus faecium, IFO3826; Organism No. 27, bouillon-agar; read-out: Minimum Inhibitory Concentration
How it was run: as §1

[7] = system: Pseudomonas aeruginosa IFO 3445; experiment: Antibacterial activity, agar-dilution MIC, organism No. 15; settings: Pseudomonas aeruginosa, IFO3445; Organism No. 15, bouillon-agar; read-out: Minimum Inhibitory Concentration
How it was run: as §1

[8] = system: Streptococcus pyogenes IFO 3340; experiment: Antibacterial activity, agar-dilution MIC, organism No. 26; settings: Streptococcus pyogenes, IFO3340; Organism No. 26, bouillon-agar; read-out: Minimum Inhibitory Concentration
How it was run: as §1

[9] = system: Salmonella shottmuelleri 8006; experiment: Antibacterial activity, agar-dilution MIC, organism No. 11; settings: Salmonella, 8006; Organism No. 11, bouillon-agar; read-out: Minimum Inhibitory Concentration
How it was run: as §1

[10] = system: Staphylococcus aureus FDA 209PJc-1; experiment: Antibacterial activity, agar-dilution MIC, organism No. 1; settings: Staphylococcus aureus, FDA209PJC1; Organism No. 1, bouillon-agar; read-out: Minimum Inhibitory Concentration
How it was run: as §1

Proteus vulgaris HX-19 = experiment: Antibacterial activity, agar-dilution MIC, organism No. 21; settings: Proteus vulgaris, HX19; Organism No. 21, bouillon-agar; read-out: Minimum Inhibitory Concentration
How it was run: as §1

[11] = system: Escherichia coli K12 C600 IAM 1264; experiment: Antibacterial activity, agar-dilution MIC, organism No. 6; settings: Escherichia coli, IAM1264; Organism No. 6, bouillon-agar; read-out: Minimum Inhibitory Concentration
How it was run: as §1

[12] = system: Escherichia coli NIHJ-JC-2; experiment: Antibacterial activity, agar-dilution MIC, organism No. 5; settings: Escherichia coli, NIHJJC2; Organism No. 5, bouillon-agar; read-out: Minimum Inhibitory Concentration
How it was run: as §1

[13] = system: Salmonella typhimurium IID 971; experiment: Antibacterial activity, agar-dilution MIC, organism No. 8; settings: Salmonella enterica; Organism No. 8, bouillon-agar; read-out: Minimum Inhibitory Concentration
How it was run: as §1

[14] = system: Pseudomonas aeruginosa NCTC 10490; experiment: Antibacterial activity, agar-dilution MIC, organism No. 16; settings: Pseudomonas aeruginosa, NCTC10490; Organism No. 16, bouillon-agar; read-out: Minimum Inhibitory Concentration
How it was run: as §1

[15] = system: Serratia marcescens IAM 1184; experiment: Antibacterial activity, agar-dilution MIC, organism No. 13; settings: Serratia marcescens, IAM1184; Organism No. 13, bouillon-agar; read-out: Minimum Inhibitory Concentration
How it was run: as §1

[16] = system: Proteus rettgeri IFO 3850; experiment: Antibacterial activity, agar-dilution MIC, organism No. 22; settings: Providencia rettgeri, IFO3850; Organism No. 22, bouillon-agar; read-out: Minimum Inhibitory Concentration
How it was run: as §1

[17] = system: Salmonella enteritidis G 14; experiment: Antibacterial activity, agar-dilution MIC, organism No. 12; settings: Salmonella enterica, ENTERITIDIS; Organism No. 12, bouillon-agar; read-out: Minimum Inhibitory Concentration
How it was run: as §1

[18] = system: Proteus morganii IFO 3848; experiment: Antibacterial activity, agar-dilution MIC, organism No. 18; settings: Morganella morganii, IFO3848; Organism No. 18, bouillon-agar; read-out: Minimum Inhibitory Concentration
How it was run: as §1

[19] = system: Candida albicans IAM 4905; experiment: Antifungal activity, agar-dilution MIC, organism No. 29; settings: Candida albicans, IAM4905; Organism No. 29, bouillon-agar; read-out: Minimum Inhibitory Concentration
How it was run: as §1

[20] = system: Staphylococcus aureus MS 353; experiment: Antibacterial activity, agar-dilution MIC, organism No. 3; settings: Staphylococcus aureus, MS353; Organism No. 3, bouillon-agar; read-out: Minimum Inhibitory Concentration
How it was run: as §1

[21] = system: Staphylococcus aureus Terajima; experiment: Antibacterial activity, agar-dilution MIC, organism No. 2; settings: Staphylococcus aureus; Organism No. 2, bouillon-agar; read-out: Minimum Inhibitory Concentration
How it was run: as §1

Proteus vulgaris OX-19 = experiment: Antibacterial activity, agar-dilution MIC, organism No. 20; settings: Proteus vulgaris, OX19; Organism No. 20, bouillon-agar; read-out: Minimum Inhibitory Concentration
How it was run: as §1

Salmonella typhi 901 = experiment: Antibacterial activity, agar-dilution MIC, organism No. 9; settings: Salmonella enterica, TYPHI, read-out: Minimum Inhibitory Concentration
How it was run: as §1

[22] = system: Streptococcus pyogenes Cook; experiment: Antibacterial activity, agar-dilution MIC, organism No. 4; settings: Streptococcus pyogenes; Organism No. 4, bouillon-agar; read-out: Minimum Inhibitory Concentration
How it was run: as §1

[23] = system: Micrococcus luteus ATCC 9341; experiment: Antibacterial activity, agar-dilution MIC, organism No. 25; settings: Micrococcus luteus, ATCC9341; Organism No. 25, bouillon-agar; read-out: Minimum Inhibitory Concentration
How it was run: as §1

[24] = system: Bacillus subtilis ATCC 6633; experiment: Antibacterial activity, agar-dilution MIC, organism No. 14; settings: Bacillus subtilis, ATCC6633; Organism No. 14, bouillon-agar; read-out: Minimum Inhibitory Concentration
How it was run: as §1

[25] = system: Enterobacter aerogenes ATCC 13048; experiment: Antibacterial activity, agar-dilution MIC, organism No. 23; settings: Klebsiella aerogenes, ATCC13048; Organism No. 23, bouillon-agar; read-out: Minimum Inhibitory Concentration
How it was run: as §1

[26] = system: Proteus mirabilis IFO 3849; experiment: Antibacterial activity, agar-dilution MIC, organism No. 19; settings: Proteus mirabilis, IFO3849; Organism No. 19, bouillon-agar; read-out: Minimum Inhibitory Concentration
How it was run: as §1

| SMILES | MIC [1] | MIC [2] | MIC [3] | MIC (Enterobacter cloacae 963) | MIC [4] | MIC [5] | MIC [6] | MIC [7] | MIC [8] | MIC [9] | MIC [10] | MIC (Proteus vulgaris HX-19) | MIC [11] | MIC [12] | MIC [13] | MIC [14] | MIC [15] | MIC [16] | MIC [17] | MIC [18] | other results |
| --- | --- | --- | --- | --- | --- | --- | --- | --- | --- | --- | --- | --- | --- | --- | --- | --- | --- | --- | --- | --- | --- |
| [C-]#[N+]C12CC3(/C=C/C(=O)OCc4cc([N+](=O)[O-])ccc4OC)OC3C1O2 (stereo not drawn) [Compound No. 16] | 50 µg/mL (≈ 140 µM) | 50 µg/mL (≈ 140 µM) | > 200 µg/mL | > 200 µg/mL | 6.25 µg/mL (≈ 17.4 µM) | 6.25 µg/mL | 6.25 µg/mL (≈ 17.4 µM) | > 200 µg/mL | 200 µg/mL (≈ 558 µM) | 50 µg/mL (≈ 140 µM) | 6.25 µg/mL (≈ 17.4 µM) | 3.13 µg/mL (≈ 8.74 µM) | 200 µg/mL (≈ 558 µM) | 200 µg/mL (≈ 558 µM) | > 200 µg/mL | > 200 µg/mL | 100 µg/mL (≈ 279 µM) | 100 µg/mL (≈ 279 µM) | > 200 µg/mL | 12.5 µg/mL (≈ 34.9 µM) | MIC [19]: 3.13 µg/mL (≈ 8.74 µM); MIC [20]: 6.25 µg/mL (≈ 17.4 µM); MIC [21]: 6.25 µg/mL (≈ 17.4 µM); MIC (Proteus vulgaris OX-19): 50 µg/mL (≈ 140 µM); MIC (Salmonella typhi 901): 50 µg/mL (≈ 140 µM); MIC [22]: 200 µg/mL (≈ 558 µM); MIC [23]: 0.1 µg/mL (≈ 0.279 µM); MIC [24]: 25 µg/mL (≈ 69.8 µM); MIC [25]: > 200 µg/mL; MIC [26]: > 200 µg/mL |
| [C-]#[N+]C12CC3(/C=C/C(N)=O)OC3C1O2 (stereo not drawn) [Compound No. 19] | 6.25 µg/mL (≈ 32.5 µM) | 12.5 µg/mL (≈ 65 µM) | 200 µg/mL (≈ 1040 µM) | 6.25 µg/mL (≈ 32.5 µM) | 6.25 µg/mL (≈ 32.5 µM) | < 0.2 µg/mL | 100 µg/mL (≈ 520 µM) | 100 µg/mL (≈ 520 µM) | 6.25 µg/mL (≈ 32.5 µM) | 12.5 µg/mL (≈ 65 µM) | 6.25 µg/mL (≈ 32.5 µM) | 1.56 µg/mL (≈ 8.12 µM) | 6.25 µg/mL (≈ 32.5 µM) | 6.25 µg/mL (≈ 32.5 µM) | 12.5 µg/mL (≈ 65 µM) | > 200 µg/mL | 50 µg/mL (≈ 260 µM) | 6.25 µg/mL (≈ 32.5 µM) | 3.13 µg/mL (≈ 16.3 µM) | 3.13 µg/mL (≈ 16.3 µM) | MIC [19]: 12.5 µg/mL (≈ 65 µM); MIC [20]: 6.25 µg/mL (≈ 32.5 µM); MIC [21]: 25 µg/mL (≈ 130 µM); MIC (Proteus vulgaris OX-19): 3.13 µg/mL (≈ 16.3 µM); MIC (Salmonella typhi 901): 1.56 µg/mL (≈ 8.12 µM); MIC [22]: 100 µg/mL (≈ 520 µM); MIC [23]: 25 µg/mL (≈ 130 µM); MIC [24]: 50 µg/mL (≈ 260 µM); MIC [25]: 100 µg/mL (≈ 520 µM); MIC [26]: 50 µg/mL (≈ 260 µM) |
